Values after ≈ are worked out from the molar mass of the structure shown.

The values that follow come from ChEMBL document CHEMBL3627682, “Exploration of the structure-activity relationship of 1,2,4-oxadiazole antibiotics” (2015).

Holding throughout (type): functional
Test [1] has as its system Staphylococcus aureus. The experiment in a line: Antibacterial activity against Staphylococcus aureus ATCC 29213.
In test [2] the test system is Staphylococcus aureus. Kind of test: Antibacterial activity against vancomycin-resistant Staphylococcus aureus VRS1.
Test [3] has as its system Enterococcus faecalis. The experiment in a line: Antibacterial activity against vancomycin-resistant Enterococcus faecalis 99.
Test [4] relates to Staphylococcus aureus. Kind of test: Antibacterial activity against ciprofloxacin, gentamicin, oxacillin, penicillin, and linezolid-resistant Staphylococcus aureus NRS119 expressing mecA.
Another test concerns Bacillus licheniformis. Kind of test: Antibacterial activity against Bacillus licheniformis ATCC 12759.
The test system of another test is Bacillus cereus. Kind of test: Antibacterial activity against Bacillus cereus ATCC 13061.
Test [5] deals with Staphylococcus aureus. The experiment in a line: Antibacterial activity against methicillin, oxacillin, and tetracycline-resistant and vancomycin and linezolid-susceptible Staphylococcus aureus ATCC 27660 expressing mecA.
Test [6] relates to Enterococcus faecalis. The experiment in a line: Antibacterial activity against Enterococcus faecalis 201.
For test [7], the system named is Staphylococcus aureus. Kind of test: Antibacterial activity against methicillin, oxacillin, and tetracycline-resistant and vancomycin and linezolid-susceptible Staphylococcus aureus NRS100 COL expressing mecA.
The test system of test [8] is Staphylococcus aureus. The experiment in a line: Antibacterial activity against vancomycin-resistant Staphylococcus aureus VRS2.
Test [9] relates to Staphylococcus haemolyticus. The experiment in a line: Antibacterial activity against Staphylococcus haemolyticus ATCC 29970.
In test [10] the test system is Enterococcus faecium. Kind of test: Antibacterial activity against vancomycin-resistant Enterococcus faecium C68.
The test system of test [11] is Enterococcus faecalis. Kind of test: Antibacterial activity against Enterococcus faecalis ATCC 29212.
Test [12] relates to Enterococcus faecium. The experiment in a line: Antibacterial activity against Vancomycin-susceptible Enterococcus faecium 119-39A.
The test system of test [13] is Staphylococcus epidermidis. Kind of test: Antibacterial activity against Staphylococcus epidermidis ATCC 35547.
The subject of test [14] is Staphylococcus aureus. The experiment in a line: Antibacterial activity against ciprofloxacin, gentamicin, oxacillin, penicillin, and linezolid-resistant Staphylococcus aureus NRS120 expressing mecA.
Test [15] deals with Enterococcus faecium. Kind of test: Antibacterial activity against vancomycin-resistant Enterococcus faecium 106.

As for `Cl.Oc1ccc(-c2nc(-c3ccc(N4CCCCC4)cc3)no2)cc1`, in the test on Staphylococcus aureus [1], the MIC (in general, the lowest concentration that inhibits growth of the organism) amounted to 8 µg/mL. `Clc1cccc(N2CCN(c3noc(-c4n[nH]cc4Cl)n3)CC2)c1`: in the test on Staphylococcus aureus [1], it took 16 µg/mL (≈ 43.8 µM) to inhibit growth (MIC).

In the test with Staphylococcus aureus [1], `O=C(c1ccccc1)c1ccc(-c2noc(-c3ccc(O)cc3)n2)cc1` showed a minimal inhibitory concentration (MIC) not below 128 µg/mL. `Oc1ccc(-c2nc(-c3ccc4c(c3)C=CCO4)no2)cc1`: the MIC against Staphylococcus aureus [1] is not below 128 µg/mL. As to `CC(=O)Nc1ccc(-c2noc(-c3ccc(O)cc3)n2)cc1`, the MIC in the test with Staphylococcus aureus [1] is not below 500 µg/mL. On to `Cn1ccc2cc(-c3noc(-c4ccc(O)cc4)n3)ccc21`, for which, in the test with Staphylococcus aureus [1], the MIC was 8 µg/mL (≈ 27.5 µM). In the case of `Oc1ccc(-c2nc(-c3ccc(Nc4ccc(F)cc4)cc3)no2)cc1`, the MIC with Staphylococcus aureus [1] is not below 128 µg/mL.

For `Oc1ccc(-c2nc(-c3ccc(Sc4ccc(C(F)(F)F)cc4)cc3)no2)cc1`, the MIC was 2 µg/mL (≈ 4.83 µM) against Staphylococcus aureus [2]; 2 µg/mL (≈ 4.83 µM) with Enterococcus faecalis [3]; 2 µg/mL (≈ 4.83 µM) against Staphylococcus aureus [4]; 1 µg/mL (≈ 2.41 µM) with Bacillus licheniformis; 2 µg/mL (≈ 4.83 µM) against Staphylococcus aureus [1]; 8 µg/mL (≈ 19.3 µM) in the test with Bacillus cereus. The MIC (against Staphylococcus aureus [5]; against Enterococcus faecalis [6]; against Staphylococcus aureus [7]; in the test with Staphylococcus aureus [8]; in [9]; in the test on Enterococcus faecium [10]) was 2 µg/mL (≈ 4.83 µM) in each case. Besides, the MIC (with Enterococcus faecalis [11]; in the test with Enterococcus faecium [12]; in test [13]; in the test on Staphylococcus aureus [14]; in the test with Enterococcus faecium [15]) was 2 µg/mL (≈ 4.83 µM) in each case.

In the test on Staphylococcus aureus [1], `C=CCOc1cc(-c2noc(-c3ccc(O)cc3)n2)ccc1Oc1ccc(C(F)(F)F)cc1` registered an MIC of 8 µg/mL (≈ 17.6 µM). On the same count and under the same terms, the same measure for `Clc1cc(Cl)cc(N2CCN(c3noc(-c4ccc5[nH]ccc5c4)n3)CC2)c1`: not below 128 µg/mL. Same read-out and setting: the same measure for `Oc1ccc(-c2nc(-c3ccc(Oc4ccc(C(F)(F)F)cc4)c(Cl)c3)no2)cc1`: not below 128 µg/mL; for `O=C(Nc1ccc(-c2noc(-c3ccc(O)cc3)n2)cc1)c1ccccc1`: not below 500 µg/mL; for `c1cc2cc(-c3nc(-c4ccc5c(c4)OCO5)no3)ccc2[nH]1`: not below 128 µg/mL. `Oc1ccc(-c2nc(-c3ccc(Nc4ccc(C(F)(F)F)cc4)cc3)no2)cc1` had a minimal inhibitory concentration (MIC) against Staphylococcus aureus [1] of 32 µg/mL (≈ 80.5 µM). Consider `Oc1ccc(-c2nc(-c3ccc4c(ccn4Cc4ccccc4)c3)no2)cc1`, for which it took 128 µg/mL (≈ 348 µM) to inhibit growth in the test on Staphylococcus aureus [1] (MIC). Take `CN[C@H](CC(C)C)C(=O)N[C@H]1C(=O)N[C@@H](CC(N)=O)C(=O)N[C@H]2C(=O)N[C@H]3C(=O)N[C@H](C(=O)N[C@H](C(=O)O)c4cc(O)cc(O)c4-c4cc3ccc4O)[C@H](O)c3ccc(c(Cl)c3)Oc3cc2cc(c3O[C@@H]2O[C@H](CO)[C@@H](O)[C@H](O)[C@H]2O[C@H]2C[C@](C)(N)[C@H](O)[C@H](C)O2)Oc2ccc(cc2Cl)[C@H]1O` [VANCOMYCIN]: the minimum inhibitory concentration (MIC) with Staphylococcus aureus [2] was found to be 512 µg/mL (≈ 353 µM); against Enterococcus faecalis [3], 128 µg/mL (≈ 88.3 µM); against Enterococcus faecalis [6], 1 µg/mL (≈ 0.69 µM); in the test with Staphylococcus aureus [8], 64 µg/mL (≈ 44.2 µM); in test [9], 2 µg/mL (≈ 1.38 µM); in the test with Enterococcus faecalis [11] it was 2 µg/mL (≈ 1.38 µM). For the same compound, the minimal inhibitory concentration (MIC) in test [13] is 16 µg/mL (≈ 11 µM); against Enterococcus faecium [15] it was 256 µg/mL (≈ 177 µM). Consider `Oc1ccc(-c2nc(N3CCN(c4cccc(Cl)c4)CC3)no2)cc1`, for which the minimum inhibitory concentration (MIC) with Staphylococcus aureus [1] is not below 128 µg/mL.

For `COc1ccc(-c2noc(-c3ccc(O)cc3)n2)cc1OC`, in the test on Staphylococcus aureus [1], the minimum inhibitory concentration (MIC) is not below 500 µg/mL. Same read-out and setting: the same measure for `Cn1ccc2ccc(-c3noc(-c4n[nH]cc4Cl)n3)cc21`: not below 128 µg/mL; for `Clc1c[nH]nc1-c1nc(-c2ccc3c(c2)OCO3)no1`: not below 128 µg/mL; for `O=S(=O)(c1ccccc1)c1ccc(-c2noc(-c3ccc(O)cc3)n2)cc1`: not below 128 µg/mL.

For `Clc1cccc(N2CCN(c3noc(-c4ccc5[nH]ccc5c4)n3)CC2)c1`, the minimal inhibitory concentration (MIC) with Staphylococcus aureus [1] is not below 128 µg/mL. In the case of `Oc1ccc(-c2nc(-c3ccc(N4CCNCC4)cc3)no2)cc1`, in the test on Staphylococcus aureus [1], the minimal inhibitory concentration (MIC) amounted to 32 µg/mL (≈ 99.3 µM).

On to `Nc1cc(-c2noc(-c3ccc(O)cc3)n2)ccc1Oc1ccc(C(F)(F)F)cc1`, for which the MIC with Staphylococcus aureus [1] is not below 128 µg/mL.

Compound `Oc1ccc(-c2nc(-c3ccc(N4CCOCC4)cc3)no2)cc1` displayed an MIC against Staphylococcus aureus [1] not below 128 µg/mL. `Oc1ccc(-c2nc(N3CCN(c4ccccc4)CC3)no2)cc1` yielded a minimum inhibitory concentration (MIC) against Staphylococcus aureus [1] not below 128 µg/mL.

In the test on Staphylococcus aureus [1], `Clc1cc(Cl)cc(N2CCN(c3noc(-c4n[nH]cc4Cl)n3)CC2)c1` yielded a minimum inhibitory concentration (MIC) not below 128 µg/mL. Still for that read-out and setting: the same measure for `Oc1ccc(-c2nc(-c3ccc(Oc4ccc(C(F)(F)F)cc4)c(I)c3)no2)cc1`: 4 µg/mL (≈ 7.63 µM); for `Cn1c2ccccc2c2cc(-c3noc(-c4ccc(O)cc4)n3)ccc21`: not below 128 µg/mL.
